# Test results published in patent publication US11484543B2, “Compositions and methods for diagnosing and treating diseases and disorders associated with mutant KCNJ5” (The Rockefeller University, priority 2017, dated 2022).
# Target: T1, KCNJ3/KCNJ5^G151R (Homo sapiens, UniProt P48544, G151R)
# T1 construct: GFP; expressed in transfected cells; host or cells: HEK293T (American Type Culture Collection), transient co-transfection
# T1 sequence (P48544 1-419 G151R): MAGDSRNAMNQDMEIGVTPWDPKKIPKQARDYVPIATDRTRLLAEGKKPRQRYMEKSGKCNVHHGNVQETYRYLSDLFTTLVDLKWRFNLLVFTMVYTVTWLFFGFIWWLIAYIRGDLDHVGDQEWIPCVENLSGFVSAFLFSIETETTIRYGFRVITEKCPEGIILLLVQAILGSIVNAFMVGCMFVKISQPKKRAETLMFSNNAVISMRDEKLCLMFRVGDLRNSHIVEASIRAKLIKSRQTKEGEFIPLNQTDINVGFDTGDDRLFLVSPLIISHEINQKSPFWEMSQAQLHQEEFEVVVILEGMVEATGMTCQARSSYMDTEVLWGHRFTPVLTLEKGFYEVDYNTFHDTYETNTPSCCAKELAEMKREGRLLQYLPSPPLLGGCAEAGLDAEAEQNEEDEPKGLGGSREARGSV
# T1 sequence (P48549 1-501 partner): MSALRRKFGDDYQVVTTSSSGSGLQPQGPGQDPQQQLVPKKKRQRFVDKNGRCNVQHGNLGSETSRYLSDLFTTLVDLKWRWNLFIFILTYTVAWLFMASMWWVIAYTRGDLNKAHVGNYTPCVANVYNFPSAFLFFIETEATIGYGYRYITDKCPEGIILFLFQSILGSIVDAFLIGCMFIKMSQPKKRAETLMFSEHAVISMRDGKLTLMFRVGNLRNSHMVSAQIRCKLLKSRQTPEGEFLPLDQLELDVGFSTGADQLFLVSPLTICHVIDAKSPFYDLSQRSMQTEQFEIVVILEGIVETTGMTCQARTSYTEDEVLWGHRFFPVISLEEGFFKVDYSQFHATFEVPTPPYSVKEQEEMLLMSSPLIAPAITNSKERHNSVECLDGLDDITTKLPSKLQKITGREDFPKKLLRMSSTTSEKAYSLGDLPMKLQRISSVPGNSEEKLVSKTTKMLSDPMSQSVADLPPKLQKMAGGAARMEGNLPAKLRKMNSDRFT
# Assay: Perforated whole-cell patch clamp, KCNJ3/KCNJ5^G151R heterotetramers in HEK293T cells
# Format: cell-based
# Procedure: HEK293T cells (American Type Culture Collection) were used for transient expression of GFP-tagged KCNJ5 or KCNJ3. The cells were grown in Dulbecco's modified Eagle medium (DMEM; Invitrogen) supplemented with 10% FBS (Invitrogen) in 5% CO2 and 95% air at 37° C. Cells were grown to 50-70% confluence for transfection, and the corresponding cDNAs (Choi et al., 2011, Science 331:768-772) were simultaneously applied to the cells using TurboFect transfection reagent according to the manufacturer's protocol (Fermentas). […]
# Within 24 hr after transfection, the cells were treated with trypsin-containing medium (TrypLE Express) (Gibco) for 10 minutes to detach the cells. […] Fluorescence signal (an indication of positive transfection) was detected with an intensified video imaging system including a SIT 68 camera (Long Island Industries). […] After forming a high resistance seal (>2 GΩ), the membrane capacitance was monitored until the whole-cell patch configuration was formed. The cell membrane capacitance was measured and compensated. The K/cation currents were measured from −80 mV to 20 mV with 20 mV steps by an Axon 200A patch-clamp amplifier. The currents were low-pass filtered at 1 KHz and digitized by an Axon interface (Digidata 1200) and were analyzed using the pClamp software system 9 (Axon). […]
Compound,"inhibition of KCNJ3/KCNJ5^G151R currents (20 μM, 10 minutes after addition)","inhibition of mutant KCNJ5 in electrophysiological studies (10 μM, heterotetramers of KCNJ3 and mutant or WT KCNJ5 (FIG. 13))"
"CC[C@H]1OC(=O)[C@H](C)[C@@H](O[C@H]2C[C@@](C)(OC)[C@@H](O)[C@H](C)O2)[C@H](C)[C@@H](O[C@@H]2O[C@H](C)C[C@H](N(C)C)[C@H]2O)[C@](C)(O)C[C@@H](C)/C(=N\OCOCCOC)[C@H](C)[C@@H](O)[C@]1(C)O [Roxithromycin, roxithromycin]",almost complete inhibition,
"N-demethyl-N-isobutyl-8,9-anhydroerythromycin A 6,9-hemiacetal [PLUX37]",,specific inhibition of mutant KCNJ5
